According to patent publication US6509375B1, “Method for increasing productivity in breeder hens” (Cyncron Corporation, priority 1999, dated 2003):

How the values were obtained:
Format in all cases: in vivo
broiler/breeder hens = assay: Egg laying by broiler breeder hens following handling and transfer stress (Example 2); conditions: for number of eggs laid: ten hens/group, 50 mg/day/kg body weight in food
Procedure: 58 week old broiler/breeder hens were obtained from a commercial private breeder when they were laying at a rate of approximately 54% (54 eggs/day/100 hens; 38 eggs/week/10 hens). […] L-DOPA was added to the feed of the treatment group of breeder hens at a dosage of 50 mg/day/kg body weight; none was added to the feed of the control group. Egg laying was monitored daily for 9 weeks in the treated and control group.

[1] = test system: progeny chicks of broiler/breeder hens; assay: Feeding efficiency of progeny chicks hatched from eggs of L-DOPA treated breeder hens
Procedure: As used herein, “feeding efficiency” is defined as the ratio of the weight of feed necessary to achieve one weight unit in broiler/breeder hens.
(§1) Beginning with week 6 of treatment, eggs from treated hens were incubated and hatched. The progeny were then followed for seven to eight weeks to assess weight gain and feeding efficiency. Egg production percentage is in terms of eggs/day/100 hens. The fertility percentage is the number of eggs laid that are fertile. The hatch/fertile ratio is the number of fertile eggs that hatch divided by the number of fertile eggs laid. The chick production percentage is the product of the egg production, fertility, and hatch/fertile percentages.
The progeny chicks hatched from eggs laid by the control and L-DOPA treated breeder hens were evaluated for feeding efficiency, as described above.
Progeny Group 1: 8 week feed conversions; Week […] of treatment in broiler breeders
Progeny Group 2: 8 week feed conversions; Week 7 of treatment in broiler breeders
Progeny Group 3: 8 week feed conversions; Week 8 of treatment in broiler breeders
Progeny Group 4: 7 week feed conversions; Week 9 of treatment in broiler breeders
Progeny Group 5: 6 week feed conversions; Week 10 of treatment in broiler breeders

[2] = test system: Hubbard broiler/breeder hens; assay: Egg and chick production by broiler/breeder hens fed L-DOPA-supplemented diet (Example 1); conditions: for Fertility (%): eggs laid that are fertile; for Egg production (%): eggs/day/100 hens, 50 mg/kg body weight in feed; for Hatch/Fertile (%): fertile eggs that hatch / fertile eggs laid; for Chick Production (%): product of egg production, fertility and hatch/fertile percentages
Procedure: 20 Hubbard broiler/breeder hens and 4 roosters at 57 weeks of age were separated into two groups of 10 hens and two roosters. One group was fed a control (untreated) diet and the second group was fed the same diet supplemented with 50 mg/kg body weight of L-DOPA for 10 weeks. This was followed by a 3-4 week rest period and then treatment was initiated for another 3 weeks (retreatment).
as §1

## N[C@@H](Cc1ccc(O)c(O)c1)C(=O)O [L-DOPA, L-Dihydroxyphenylalanine]
broiler/breeder hens; Total of weeks 1-9 after handling and transfer stress
  number of eggs laid: 327
broiler/breeder hens; control hens: two months
  recovery time to achieve the same egg laying productivity rate as before the stress: one month
broiler/breeder hens; nine weeks following the moving stress
  total number of eggs laid greater than that of untreated controls: 31%
broiler/breeder hens; week 1 after handling and transfer stress
  number of eggs laid: 10
broiler/breeder hens; week 2 after handling and transfer stress
  number of eggs laid: 29
broiler/breeder hens; week 3 after handling and transfer stress
  number of eggs laid: 34
broiler/breeder hens; week 4 after handling and transfer stress
  number of eggs laid: 41
broiler/breeder hens; week 5 after handling and transfer stress
  number of eggs laid: 39
broiler/breeder hens; week 6 after handling and transfer stress
  number of eggs laid: 50
broiler/breeder hens; week 7 after handling and transfer stress
  number of eggs laid: 41
broiler/breeder hens; week 8 after handling and transfer stress
  number of eggs laid: 40
broiler/breeder hens; week 9 after handling and transfer stress
  number of eggs laid: 43
[1]; Average of progeny groups 1-5
  Final feeding efficiency of progeny: 2.05 pounds of feed consumed per pound of body weight gained
[1]; Progeny Group 1: 8 week feed conversions, Week 8 of treatment in broiler breeders
  Final feeding efficiency of progeny: 1.99 pounds of feed consumed per pound of body weight gained
[1]; Progeny Group 2: 8 week feed conversions, Week 7 of treatment in broiler breeders
  Final feeding efficiency of progeny: 2.07 pounds of feed consumed per pound of body weight gained
[1]; Progeny Group 3: 8 week feed conversions, Week 8 of treatment in broiler breeders
  Final feeding efficiency of progeny: 1.98 pounds of feed consumed per pound of body weight gained
[1]; Progeny Group 4: 7 week feed conversions, Week 9 of treatment in broiler breeders
  Final feeding efficiency of progeny: 2.07 pounds of feed consumed per pound of body weight gained
[1]; Progeny Group 5: 6 week feed conversions, Week 10 of treatment in broiler breeders
  Final feeding efficiency of progeny: 2.12 pounds of feed consumed per pound of body weight gained
[1]; progeny hatched from eggs during weeks 6-10 of treatment
  average increase in feeding efficiency of progeny relative to control birds: 6%
[2]; FIG. 1, over an eight week period
  average percentage egg production versus control hens: greater
[2]; FIG. 2, nine week period, L-DOPA-supplemented feed
  cumulative egg production versus control hens: significantly higher
[2]; FIG. 3, three weeks of re-treatment following three weeks without L-DOPA
  percentage egg production versus control hens during re-treatment: increase
[2]; FIGS. 1 and 2, L-DOPA-supplemented feed 50 mg/kg body weight
  average weekly egg production versus control hens: significantly higher
[2]; eggs set for incubation during weeks 7, 8 and 10 of treatment
  higher rates of hatching of fertile eggs over eggs from control hens: 15%
[2]; mean of weeks 7, 8, 10
  Fertility (%): 92%
  Egg production (%): 64%
  Hatch/Fertile (%): 84%
  Chick Production (%): 51%
[2]; week 7 of treatment
  Fertility (%): 84%
  Egg production (%): 71%
  Hatch/Fertile (%): 75%
  Chick Production (%): 45%
[2]; week 8 of treatment
  Fertility (%): 100%
  Egg production (%): 58%
  Hatch/Fertile (%): 90%
  Chick Production (%): 52%
[2]; week 10 of treatment
  Fertility (%): 92%
  Egg production (%): 62%
  Hatch/Fertile (%): 86%
  Chick Production (%): 55%
[2]; weeks 7, 8 and 10 of treatment
  overall gain in chick production over the control groups: 76%
